Measured values taken from publication PMC8605905 (Oxidative Medicine and Cellular Longevity, 2021).
Read-outs that look alike come from different tables or passages of the source.

Tests used:
[1] = system: ∆K280 tauRD-DsRed SH-SY5Y cells; experiment: High content analysis of ΔK280 tauRD-DsRed fluorescence; type: cell-based, Human; details: for EC50: Homo sapiens, read-out: Extrapolated EC50 in inhibiting ∆K280 tauRD aggregation (DsRed fluorescence)
Description: Human 293-derived Flp-In-293 cells (Invitrogen, Madison, WI, USA) were cultivated in Dulbecco's modified Eagle's medium (DMEM) containing 10% foetal bovine serum (FBS) (Thermo Fisher Scientific). Human neuroblastoma SH-SY5Y-derived Aβ-GFP [23] and ∆K280 tauRD-DsRed cells were kept in DMEM/nutrient mixture F12 (DMEM/F12) containing 10% FBS, 5 μg/ml blasticidin, and 100 μg/ml hygromycin (InvivoGen, San Diego, CA, USA). Doxycycline (Sigma-Aldrich) was applied to induce the expression of Aβ-GFP (5 μg/ml doxycycline) or ∆K280 tauRD-DsRed (2 μg/ml doxycycline).
(§1) On day 1, Aβ-GFP or ∆K280 tauRD-DsRed SH-SY5Y cells were seeded into 96-well plates (2.5 × 10^4/well) and treated with retinoic acid (10 μM; Sigma-Aldrich) to prompt neuronal differentiation. […] On day 8, cells were stained with Hoechst 33342 (0.1 μg/ml; Sigma-Aldrich) for 30 min, and cell images were automatically captured at excitation/emission wavelengths of 482/[…] (GFP fluorescence) or 543/593 nm (DsRed fluorescence) using a high content analysis (HCA) system (Micro Confocal High-Content Imaging System). Image Acquisition and Analysis Software (MetaXpress) (Molecular Devices, Sunnyvale, CA, USA) was used to analyse the images. CellROX Orange (5 μM; Molecular Probes, Eugene, OR, USA) (for Aβ-GFP cells) or dichloro-dihydro-fluorescein diacetate (DCFH-DA, 10 μM; Invitrogen) (for ∆K280 tauRD-DsRed cells) was added to the cells and incubated at 37°C for 30 min. The HCA system was used to measure intracellular ROS at 531/593 nm (CellROX Orange fluorescence) or 482/536 nm (DCFH-DA fluorescence) of excitation/emission wavelengths.

caspase 1 [2] = experiment: Caspase 1 activity in ΔK280 tauRD-DsRed cells; type: cell-based, Human; details: 10 μM, ∆K280 tauRD-DsRed cells
Description: (§2) Aβ-GFP or ∆K280 tauRD-DsRed SH-SY5Y cells were seeded into 6-well plates (5 × 10^5/well) and treated with retinoic acid, coumarin-chalcone derivatives, and doxycycline as previously described. On day 8, cells were collected and lysates were prepared with six freeze/thaw cycles. The supernatant was collected by centrifugation, followed by measurement of the caspase 1 activity in 50 μg aliquots of cell extract using the ICE fluorometric assay kit (BioVision, Milpitas, CA, USA). Following incubation of the mixture at 37°C for 2 h, fluorescence was measured with excitation/emission wavelengths at 400/505 nm (FLx800 fluorescence microplate reader). In addition, the collected cells were lysed by sonication. Acetylcholinesterase (AChE) activity in the supernatant was determined in 10 μg aliquots of cell extracts using the AChE activity assay kit (Sigma-Aldrich) according to the manufacture's protocol. Finally, the absorbance at 412 nm was measured using a Multiskan GO spectrophotometer (Thermo Fisher Scientific).

[3] = system: ∆K280 tauRD-DsRed SH-SY5Y cells; experiment: High content analysis of neurite outgrowth in ΔK280 tauRD-DsRed cells; type: cell-based, Human; details: 10 μM
Description: On day 1, Aβ-GFP or ∆K280 tauRD-DsRed SH-SY5Y cells were plated into 24-well plates (6 × 10^4/well) followed by addition of retinoic acid. On day 2, cells were treated with coumarin-chalcone derivatives (5 or 10 μM) and with doxycycline (5 or 2 μg/ml) to induce the expression of Aβ-GFP or ∆K280 tauRD-DsRed. On day 8, 4% paraformaldehyde, 0.1% Triton X-100, and 3% BSA were used to fix, permeabilize, and block cells, respectively. Subsequently, the cells were stained with TUBB3 (neuronal class III β-tubulin) primary antibody (1 : 1000; Covance, Princeton, NJ, USA) at 4°C overnight. Goat anti-rabbit Alexa Fluor 555 secondary antibody (1 : 1000; Thermo Fisher Scientific) was then added, followed by a 3 h incubation at room temperature. Following staining nuclei with 4′,-6-diamidino-2-phenylindole (DAPI) (0.1 μg/ml; Sigma-Aldrich), the neurons were imaged by using the HCA system and analysed by using the Neurite Outgrowth Application Module (MetaXpress; Molecular Devices).
To monitor the cAMP-mediated signal transduction pathway, CRE-GFP 293 cells in 6-well plates (1 × 10^6/well) were pretreated with kinase inhibitor H-89 (LC Laboratories, Woburn, MA, USA), KN-62 (Cayman Chemical, Ann Arbor, MI, USA), U0126 (LC Laboratories), or wortmannin (LC Laboratories) (10 μM) for 4 h before forskolin or LM-021 (10 μM) addition for 5 h. GFP fluorescence/protein and total/phosphorylated PKA, CaMKII, ERK, PI3K, and CREB levels were examined. In addition, Aβ-GFP or ∆K280 tauRD-DsRed SH-SY5Y cells were treated with retinoic acid (10 μM) on day 1, followed by the addition of LM-021 (5 or 10 μM) and doxycycline (5 or 2 μg/ml) on day 2, as described. Kinase inhibitors (10 μM) were added on day 6. On day 8, the cells were collected for protein expression analysis of BDNF, BCL2 (BCL2 apoptosis regulator), and BAX (BCL2 associated X, apoptosis regulator), and total/phosphorylated PKA, CaMKII, ERK, PI3K, and CREB. Also, cells were stained with DAPI and assessed for neurite outgrowth as described above.

[4] = system: ∆K280 tauRD-DsRed SH-SY5Y cells; experiment: Real-time PCR of tauRD-DsRed RNA; type: cell-based, Human; details: 10 μM
Description: (§3) To measure the Aβ-GFP/tauRD-DsRed RNA expression on day 8, total RNA was extracted from collected cells and reverse-transcribed to cDNA (SuperScript III reverse transcriptase; Invitrogen, Waltham, MA, USA). Real-time quantitative PCR was performed using 100 ng of cDNA and the gene-specific TaqMan fluorogenic probe PN4331348 (EGFP) or customized Assays-by-Design probe for DsRed and 4326321E (HPRT1) (StepOnePlus Real-time PCR system, Applied Biosystems, Foster City, CA, USA). The RNA expression level was calculated using the formula 2^ΔCt, ΔCT = CT (control) − CT (target), in which CT indicates the cycle threshold.

ΔK280 tauRD protein = target: T1, ΔK280 tauRD protein (Homo sapiens, UniProt P10636, DEL597-597); experiment: Thioflavin T assay of ΔK280 tauRD aggregation; type: biochemical
T1 construct: E. coli-derived ΔK280 tauRD protein; made in house; host or cells: E. coli
T1 sequence (P10636 with tags, fused parts or gaps DEL597-597): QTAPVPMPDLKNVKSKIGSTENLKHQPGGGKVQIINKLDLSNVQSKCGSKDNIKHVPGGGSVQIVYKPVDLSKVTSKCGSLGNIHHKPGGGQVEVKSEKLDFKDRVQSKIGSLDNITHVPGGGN
Description: The potential of Congo red and coumarin-chalcone derivatives in inhibiting tau misfolding was assessed using the E. coli-derived ΔK280 tauRD protein [21]. In brief, ΔK280 tauRD protein (20 μM) was incubated with the tested compound (1−10 μM) in buffer (150 mM NaCl, 20 mM Tris-HCl (pH 8.0)) at 37°C for 48 h to form aggregates. Thioflavin T (5 μM) was then added, and the mixture was incubated at room temperature for 25 min. The fluorescence intensity of the samples was measured, and the EC50 was computed as described.

Aβ-GFP SH-SY5Y cells [5] = experiment: ROS assay (CellROX Orange) in Aβ-GFP cells; type: cell-based, Human; details: tested 1.2–5 μM
Description: as §1

caspase 1 [6] = experiment: Caspase 1 activity in Aβ-GFP cells; type: cell-based, Human; details: 5 μM, vs untreated cells
Description: as §2

Aβ-GFP SH-SY5Y cells [7] = experiment: Real-time PCR of Aβ-GFP RNA; type: cell-based, Human; details: 5 μM
Description: as §3

physchem = type: physicochemical; details: aqueous buffer
Description: The coumarin-chalcone derivatives (E)-4-hydroxy-3-(3-(p-tolyl)acryloyl)-2H-chromen-2-one (LM-016), (E)-3-(3-(4-(dimethylamino)phenyl)acryloyl)-4-hydroxy-2H-chromen-2-one (LM-021), and (E)-3-(3-(furan-2-yl)acryloyl)-4-hydroxy-2H-chromen-2-one (LM-022) were synthesized in our laboratory as previously described and examined by using NMR spectroscopy. The LM-016, LM-021, and LM-022 stayed soluble in cell culture medium at concentrations up to 100 μM.

[8] = system: Acetylcholinesterase (AChE); experiment: AChE activity in Aβ-GFP cells; type: cell-based; details: 5 μM, vs untreated cells
Description: as §2

Aβ42 peptide = target: T2, Aβ42 peptide (Homo sapiens, UniProt P05067); experiment: Thioflavin T assay of Aβ aggregation; type: biochemical; details: Aβ42 5 μM, compound 5–20 μM, 37°C 48 h; read-out: Aβ aggregation inhibition EC50 (Thioflavin T)
T2 construct: containing Aβ42 peptide (5 μM); purchased AnaSpec; host or cells: synthetic
T2 sequence (P05067 672-713 limits assumed): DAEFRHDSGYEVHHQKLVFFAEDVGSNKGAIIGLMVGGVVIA
Description: In brief, the tested compound (5–20 μM) was added to a buffer solution (150 mM NaCl, 20 mM Tris-HCl (pH 8.0)) containing Aβ42 peptide (5 μM) and incubated at 37°C for 48 h. Thioflavin T (10 μM) (Sigma-Aldrich) then was added, and the mixture was incubated for 5 min at room temperature. Subsequently, the fluorescence intensity was quantified at 420/485 nm of excitation/emission wavelengths using a FLx800 microplate reader (Bio-Tek, Winooski, VT, USA). EC50 was computed as described.

[9] = DPPH radical-scavenging assay; details: compounds 10–160 μM, 100 μM DPPH, 30 min, n = 3
Description: Stable free radical 1,1-diphenyl-2-picrylhydrazyl (DPPH) (Sigma-Aldrich) was applied to test the potential radical-scavenging activity of the coumarin-chalcone derivatives. In brief, the compounds (10–160 μM) were added to an ethanol solution containing 100 μM DPPH. The mixture was vortexed for 15 sec, left to stand for 30 min at room temperature, and scavenging capacity was measured at a wavelength of 517 nm using a Multiskan GO microplate spectrophotometer (Thermo Fisher Scientific, Waltham, MA, USA).

Aβ-GFP SH-SY5Y cells [10] = experiment: High content analysis of Aβ-GFP fluorescence; type: cell-based, Human; details: for EC50: Homo sapiens, read-out: EC50 in Aβ aggregation inhibition (GFP fluorescence); for Concentration significantly augmenting green fluorescence intensity (Aβ-GFP): day 8
Description: Human neuroblastoma SH-SY5Y-derived Aβ-GFP [23] and ∆K280 tauRD-DsRed cells were kept in DMEM/nutrient mixture F12 (DMEM/F12) containing 10% FBS, 5 μg/ml blasticidin, and 100 μg/ml hygromycin (InvivoGen, San Diego, CA, USA). Doxycycline (Sigma-Aldrich) was applied to induce the expression of Aβ-GFP (5 μg/ml doxycycline) or ∆K280 tauRD-DsRed (2 μg/ml doxycycline).
On day 1, Aβ-GFP or ∆K280 tauRD-DsRed SH-SY5Y cells were seeded into 96-well plates (2.5 × 10^4/well) and treated with retinoic acid (10 μM; Sigma-Aldrich) to prompt neuronal differentiation. […] Image Acquisition and Analysis Software (MetaXpress) (Molecular Devices, Sunnyvale, CA, USA) was used to analyse the images. CellROX Orange (5 μM; Molecular Probes, Eugene, OR, USA) (for Aβ-GFP cells) or dichloro-dihydro-fluorescein diacetate (DCFH-DA, 10 μM; Invitrogen) (for ∆K280 tauRD-DsRed cells) was added to the cells and incubated at 37°C for 30 min.

[11] = ∆K280 tauRD-DsRed SH-SY5Y cells, tested 2.5–10 μM

SMILES | EC50 [1, 11] | Concentration significantly elevating DsRed fluorescence intensity ([1]; tested 2.5–10 μM, day 8) | Caspase 1 activity (caspase 1 [2]) | Neurite length and branches [3] | ∆K280 tauRD-DsRed RNA level [4] | EC50 (ΔK280 tauRD protein) | Concentration effectively decreasing ROS levels caused by Aβ overexpression (Aβ-GFP SH-SY5Y cells [5]) | EC50 ([1]; SH-SY5Y) | Caspase 1 activity (caspase 1 [6]) | Aβ-GFP RNA levels (Aβ-GFP SH-SY5Y cells [7]) | solubility (physchem; cell culture medium, read-out: Concentration up to which the compound stayed soluble) | AChE activity [8] | EC50 (Aβ42 peptide) | EC50 [9] | EC50 (Aβ-GFP SH-SY5Y cells [10]; SH-SY5Y) | Concentration significantly augmenting green fluorescence intensity (Aβ-GFP) (Aβ-GFP SH-SY5Y cells [10]; tested 1.2–5 μM) | solubility (physchem) | EC50 (Aβ-GFP SH-SY5Y cells [10]; Aβ-GFP SH-SY5Y cells, tested 1.2–5 μM)
Nc1c(/N=N/c2ccc(-c3ccc(/N=N/c4cc(S(=O)(=O)O)c5ccccc5c4N)cc3)cc2)cc(S(=O)(=O)O)c2ccccc12 [Congo red, reference compound] | 57 µM | 10 µM | lowered caspase 1 activity | successfully ameliorated | did not significantly alter | 10 µM |  |  |  |  |  |  |  |  |  |  |  | 
Cc1ccc(/C=C/C(=O)c2c(O)c3ccccc3oc2=O)cc1 [LM-016, (E)-4-hydroxy-3-(3-(p-tolyl)acryloyl)-2H-chromen-2-one] |  |  |  |  |  |  | 2.5 to 5 µM | 70 µM | reduced | did not significantly modify | ≥ 100 µM | reduced | 15 µM | 126 µM | 7 µM | 2.5 to 5 µM |  | 
O=C(/C=C/c1ccco1)c1c(O)c2ccccc2oc1=O [LM-022, (E)-3-(3-(furan-2-yl)acryloyl)-4-hydroxy-2H-chromen-2-one] | 73 µM |  |  |  |  |  | 2.5 to 5 µM |  |  | did not significantly modify |  |  | 18 µM | 143 µM |  | 2.5 to 5 µM | ≥ 100 µM | 8.2 µM
